Tests used:
[1] = system: MCF7 breast cancer cell line; assay: MTT cellular viability assay, MCF7; format: cell-based; settings: Homo sapiens, 96 h
Procedure: The human A2780 ovarian (#93112519) and MCF-7 breast (#86012803) cancer cell lines were obtained from the European Cell Culture Collection (ECACC; Salisbury, UK). The human cardiac ventricular AC16 cell line (#SCC109) was obtained from Merck/Millipore (UK). The A2780 and MCF-7 cell lines were maintained in RPMI-1640 medium and the AC16 cell line was maintained in DMEM/F12 medium. Culture medium of all three cell lines was supplemented with 10% heat-inactivated foetal bovine serum (FBS) and 2 mM L-glutamine, with the cells maintained in a humidified 5% CO2 atmosphere at 37 °C. The media was changed every 72h and the cells passaged via trypsinisation (Trypsin EDTA, 0.25%) before reaching confluency.
Cytotoxicity of each compound against the cell lines was assessed using the MTT assay. Cells were seeded in three replicates into 96-well plates at a density of 2 × 10^3/well for 24h to facilitate cell attachment. Media was replaced with that containing either test compound (0–10µM) for A2780 and MCF7 cell lines, single concentration (10 µM) test compound for AC16 cell line, or drug vehicle (dimethyl sulphoxide; DMSO) and the cells incubated for a further 96 h at 37 °C in a humidified 5% CO2 atmosphere. […] Chemosensitivity was thereafter assessed using a standard 3-[4, 5-dimethylthiazolyl]-2,5-diphenyltetrazolium bromide (MTT) assay, with the optical density determined at 540 nm as an indicator of cellular viability.

[2] = system: OVCAR-5; assay: NCI-60 cytotoxicity screen; format: cell-based; settings: Homo sapiens, NCI-60, 48 h, ovarian
[3] = system: T-47D; assay: NCI-60 cytotoxicity screen; format: cell-based, human; settings: Homo sapiens, T47D; NCI-60, 48 h, breast
[4] = system: TK-10; assay: NCI-60 cytotoxicity screen; format: cell-based, human; settings: Homo sapiens, TK-10; NCI-60, 48 h, renal
From the text: (§1) Compounds 3–7 were submitted to the US National Cancer Institute (NIH, Bethesda, Maryland) for screening against the NCI-60 panel of human cancer cell lines, as per standard protocol.

[5] = system: H322M; assay: NCI-60 cytotoxicity screen; format: cell-based, human; settings: Homo sapiens, NCI-H322M; NCI-60, 48 h, NSCLC
From the text: as §1

[6] = system: UACC-257; assay: NCI-60 cytotoxicity screen; format: cell-based, human; settings: Homo sapiens, UACC-257; NCI-60, 48 h, melanoma
From the text: as §1

[7] = system: A549; assay: NCI-60 cytotoxicity screen; format: cell-based; settings: Homo sapiens, NCI-60, 48 h, NSCLC
From the text: as §1

[8] = system: HL-60; assay: NCI-60 cytotoxicity screen; format: cell-based; settings: Homo sapiens, NCI-60, 48 h, leukaemia
From the text: as §1

[9] = system: LOX IMVI; assay: NCI-60 cytotoxicity screen; format: cell-based; settings: Homo sapiens, NCI-60, 48 h, melanoma
From the text: as §1

[10] = system: UACC-62; assay: NCI-60 cytotoxicity screen; format: cell-based; settings: Homo sapiens, NCI-60, 48 h, melanoma
From the text: as §1

[11] = system: SN12C; assay: NCI-60 cytotoxicity screen; format: cell-based; settings: Homo sapiens, NCI-60, 48 h, renal
From the text: as §1

[12] = system: SK-MEL-28; assay: NCI-60 cytotoxicity screen; format: cell-based; settings: Homo sapiens, NCI-60, 48 h, melanoma
From the text: as §1

[13] = system: HS 578 T; assay: NCI-60 cytotoxicity screen; format: cell-based; settings: Homo sapiens, NCI-60, 48 h, breast
From the text: as §1

[14] = system: EKVX; assay: NCI-60 cytotoxicity screen; format: cell-based; settings: Homo sapiens, NCI-60, 48 h, NSCLC
From the text: as §1

[15] = system: IGROV-1; assay: NCI-60 cytotoxicity screen; format: cell-based; settings: Homo sapiens, NCI-60, 48 h, ovarian
From the text: as §1

[16] = system: HCT116; assay: NCI-60 cytotoxicity screen; format: cell-based; settings: Homo sapiens, HCT-116; NCI-60, 48 h, colon
From the text: as §1

[17] = system: H522; assay: NCI-60 cytotoxicity screen; format: cell-based; settings: Homo sapiens, NCI-60, 48 h, NSCLC
From the text: as §1

[18] = system: MDA-MB-435; assay: NCI-60 cytotoxicity screen; format: cell-based; settings: Homo sapiens, NCI-60, 48 h, melanoma
From the text: as §1

[19] = system: KM12; assay: NCI-60 cytotoxicity screen; format: cell-based; settings: Homo sapiens, NCI-60, 48 h, colon
From the text: as §1

[20] = system: OVCAR-3; assay: NCI-60 cytotoxicity screen; format: cell-based; settings: Homo sapiens, NCI-60, 48 h, ovarian
From the text: as §1

[21] = system: 786-0; assay: NCI-60 cytotoxicity screen; format: cell-based; settings: Homo sapiens, NCI-60, 48 h, renal
From the text: as §1

[22] = system: DU-145; assay: NCI-60 cytotoxicity screen; format: cell-based; settings: Homo sapiens, NCI-60, 48 h, prostate
From the text: as §1

[23] = system: SF-295; assay: NCI-60 cytotoxicity screen; format: cell-based; settings: Homo sapiens, NCI-60, 48 h, CNS
From the text: as §1

[24] = system: MCF-7; assay: NCI-60 cytotoxicity screen; format: cell-based; settings: Homo sapiens, MCF7; NCI-60, 48 h, breast
From the text: as §1

[25] = system: RXF 393; assay: NCI-60 cytotoxicity screen; format: cell-based; settings: Homo sapiens, NCI-60, 48 h, renal
From the text: as §1

[26] = system: SNB-75; assay: NCI-60 cytotoxicity screen; format: cell-based; settings: Homo sapiens, NCI-60, 48 h, CNS
From the text: as §1

[27] = system: SW620; assay: NCI-60 cytotoxicity screen; format: cell-based; settings: Homo sapiens, SW-620; NCI-60, 48 h, colon
From the text: as §1

[28] = system: COLO205; assay: NCI-60 cytotoxicity screen; format: cell-based; settings: Homo sapiens, COLO 205; NCI-60, 48 h, colon
From the text: as §1

[29] = system: HCT15; assay: NCI-60 cytotoxicity screen; format: cell-based; settings: Homo sapiens, HCT-15; NCI-60, 48 h, colon
From the text: as §1

[30] = system: OVCAR-4; assay: NCI-60 cytotoxicity screen; format: cell-based; settings: Homo sapiens, NCI-60, 48 h, ovarian
From the text: as §1

[31] = system: HeLa nuclear KDACs; assay: Fluor-de-Lys HDAC fluorometric activity assay with HeLa nuclear extract; format: biochemical; settings: for IC50: HeLa nuclear extract, up to 20 µM, read-out: HDAC Inhibition IC50
Procedure: Total zinc-dependent KDAC (classes I, II and IV) activity was measured using the Fluor-de-Lys^TM HDAC fluorometric activity assay kit (BioMol, Exeter, UK), as per manufacturers protocol. Briefly, HeLa nuclear extract, potential inhibitor (5 nM–20 μM) and assay buffer were incubated in a 96-well fluorometric plate at 37 °C for 15 min. Acetylated substrate (100 μM) was added and the mixture incubated at 37 °C for a further 20 min. The developer was added and the mixture incubated at 37 °C for a further 15 min. Fluorescence was measured using a microplate reader (λex = 360 nm, λem = 460 nm). Percentage KDAC activity and thus KDAC inhibition was determined by quantification of fluorescence obtained in the presence versus absence of the respective inhibitor.

| SMILES | IC50 [1] [µM] | IC50 [2] [µM] | IC50 [3] [µM] | IC50 [4] [µM] | IC50 [5] [µM] | IC50 [6] [µM] | IC50 [7] [µM] | IC50 [8] [µM] | IC50 [9] [µM] | IC50 [10] [µM] | IC50 [11] [µM] | IC50 [12] [µM] | IC50 [13] [µM] | IC50 [14] [µM] | IC50 [15] [µM] | IC50 [16] [µM] | IC50 [17] [µM] | IC50 [18] [µM] | IC50 [19] [µM] | IC50 [20] [µM] | other results |
| --- | --- | --- | --- | --- | --- | --- | --- | --- | --- | --- | --- | --- | --- | --- | --- | --- | --- | --- | --- | --- | --- |
| Nc1ccccc1NC(=O)c1ccc(CNC(=O)OCc2cccnc2)cc1 [Compound 1, Entinostat, reference compound] | 0.4 ± 0.1 | 1.05 | 0.46 | 0.29 | 4.79 | 1.43 | 3.28 | 0.85 | 1.06 | 0.28 | 9.4 | 0.66 | 2.33 | 3.26 | 3.95 | 0.8 | 0.7 | 0.96 | 4.31 | 1.74 | IC50 [21]: 4.97 µM; IC50 [22]: 2.26 µM; IC50 [23]: 2.56 µM; IC50 [24]: 0.64 µM; IC50 [25]: 1.49 µM; IC50 [26]: 5.07 µM; IC50 [27]: 1.3 µM; IC50 [28]: 2 µM; IC50 [29]: 8.47 µM; IC50 [30]: 1.31 µM; IC50 [31]: 3 ± 0.2 µM |
| C=C(CN1CCN(c2ccccc2C(F)(F)F)CC1)c1ccc(C(=O)Nc2ccccc2N)cc1 [Compound 3, N-(2-aminophenyl)-4–(3-(4–(2-(trifluoromethyl)phenyl)piperazin-1-yl)prop-1-en-2-yl)benzamide] | 7.3 ± 0.4 | 11.8 | 7.67 | 4.63 | 11.4 | 4.67 | 4.17 | 0.04 | 5.86 | 9.16 | 6.43 | 10.3 | 12.8 | 6.7 | 6.03 | 3.09 | 1.91 | 2.72 | 2.04 | 5.92 | IC50 [21]: 2.36 µM; IC50 [22]: 7.52 µM; IC50 [23]: 5.97 µM; IC50 [24]: 4.48 µM; IC50 [25]: 1.67 µM; IC50 [26]: 2.82 µM; IC50 [27]: 3.4 µM; IC50 [28]: 11.5 µM; IC50 [29]: 4.89 µM; IC50 [30]: 6.53 µM; IC50 [31]: > 20 µM; IC20 ([31]; concentration inhibiting HDAC activity by 20%, read-out: HDAC Inhibition IC20): 1.5 ± 0.8 µM |
